These results are taken from a melting point compilation (Tetko et al.; mined from patent text by program, amines drawn as free bases though some values may be those of a salt).

A word on the melting point: it is the temperature, or range, at which the solid turns liquid. For the molecule `CC(C)(C)[Si](C)(C)N1C(=O)[C@@H](N2C(=O)c3ccccc3C2=O)[C@H]1/C=C/c1ccccc1` (relative stereo), the melting point was in the range of 167 to 168 °C. Then `CO[C@H]1O[C@@H](C)[C@@H]2C(=O)[C@H]3CCCC[C@@H]3C[C@H]12`, with 86 to 87 °C; and `NCCCc1ccc2c(n1)NCCC2`, with 66 to 68.5 °C; and `Cc1cc(-c2noc(C(F)F)n2)cc(C)c1OCCCc1n[nH]c(=O)s1`, with 110 to 111 °C. Molecule `CNc1cccc2c1OC1(CC1)C2=O` yielded a melting point of 98.2 °C. Then `O=C(NC1CCN(CCCOc2ccccc2C(=O)O)CC1)c1ccccc1`, with 207 to 208 °C. The value for `CCc1nc(C)[nH]c1Sc1ccccc1` was 171 °C. In the case of `CCCCCCOc1c(C=O)ccc2c1C=CC(C=O)(OCCCCCC)C2` (stereo not drawn), the melting point lay in the range of 50 to 52 °C.

`Cc1c(-c2ccccc2)c(N2CC[C@H](N(C)C)C2)c2oc(N3CC(CO)C3)nc2c1C#N` gave a melting point of 48 to 51 °C. Turning to `Cc1ccc(-c2ncccc2OC2SCC(O)C(O)C2O)o1` (stereo not drawn), the melting point stood at 191 °C. Then `CS(=O)(=O)c1ccc(-c2coc3ccc(-c4nnc(N)o4)cc23)cc1`, with 274 to 275 °C; and `CCc1cccc2c3c([nH]c12)C(CC)(CC(=O)OC)OCC3NC=O` (stereo not drawn), with 154 to 156 °C; and `CC(C)(C)OC(=O)NC(Cc1ccccc1)C(=O)NC(Cc1ccc(C(F)(F)F)cc1)C(O)c1ccc(F)cc1` (mixture of isomers), with 230 to 231 °C. On to `O=c1ccc2c(F)cc(F)cc2[nH]1`, for which the melting point lay within 292 to 318 °C. Then `CC(=O)NC12CCC(CC1)C2(C)C`, with 133 to 134 °C; and `Cn1c(=O)c2c(ncn2CCOC(=O)C(C)(C)Oc2ccc(Cl)cc2)n(C)c1=O`, with 131 to 132 °C; and `CC(C)=CCC/C(C)=C/CC/C(C)=C/CC/C(C)=C/CON1C(=O)c2ccccc2C1=O`, with 40 to 41 °C. `N#Cc1c(N2CCc3ccccc3CC2)nc(NCCOc2ccccc2)[nH]c1=O` showed a melting point greater than 200 °C. Then `Nc1cc(C(=O)c2cccc(C(=O)c3ccc(F)c(N)c3)c2)ccc1F`, with 170 to 171 °C; and `Cn1c(=O)c2cnc(N)nc2n(-c2ccccc2)c1=O`, with greater than 300 °C; and `CCCCCCCCCCCc1cc2ccc(C(=O)O)cc2n1C`, with 165 to 168 °C. As for `COC(=O)CN1CCN(C)c2cc(Nc3ncc(Cl)c(Nc4ccccc4NS(C)(=O)=O)n3)ccc2C1`, the melting point is 106 to 124 °C. `O=C(Nc1cc(OCCCON=Cc2ccc(-c3ccccc3)cc2)ccc1C(=O)O)c1ccc(C(F)(F)F)cc1` had a melting point of 206 to 207 °C.

The molecule `CC1(C)CC2(CC(C)(C)c3ccc(Oc4cccc(N)c4)cc32)c2cc(Oc3cccc(N)c3)ccc21` displayed a melting point of 206 °C. `Cc1ccc(Sc2cncc3sc(C(=O)NC=NN)cc23)cc1` registered a melting point of 202 to 205 °C. Turning to `O=C(NCCCN1CCN(Cc2ccc(Cl)cc2)CC1)Nc1ccccc1`, the melting point lay in the range of 135 to 137 °C. The value for `CCOC(=O)CCc1cccc2c1NC(=O)CC2` was 102 to 103 °C; that for `N#Cc1ccc(-c2nc(CCl)co2)s1` was 146 to 147 °C; that for `CC(C)Oc1ccc(-n2c(-c3ccc(C(=O)O)cc3)c(C(=O)O)c3cc(Oc4ccc(Cl)cc4)ccc32)cc1` was 217 to 222 °C. Then `CCc1nc2c(cnn2CC)c(NC2CCOCC2)c1CNC(=O)c1cc(C)cc(C(=O)NCc2ccc(OC)c(-c3cccc(CC4CCN(C)CC4)c3)c2)c1`, with 115 to 117 °C.

On to `COc1cc(Nc2c(C#N)cnc3cc(/C=C/c4ccncc4)ccc23)c(Cl)cc1Cl`, for which the melting point lay within 218 to 219 °C. Then `NC(=N[N+](=O)[O-])NCCSCc1csc(NC(N)=NCC(F)(F)Cl)n1`, with 112 to 116 °C; and `CCOC(=O)c1ccc2nc(NC)[nH]c2c1`, with 247 to 249 °C. The value for `COCCNC(=O)C1CCCN1S(=O)(=O)c1ccc(Cl)c(COc2cccc3ccc(C)nc23)c1Cl` (stereo not drawn) was 107 °C; that for `Cc1ccc(C(=O)c2ccc(O)c(CC(=O)O)c2)cc1` was 218 °C. Take `Cc1ncccc1OCCO`: the melting point fell in the range of 75 to 80 °C. The value for `CCOC(=O)c1cc(CC)sc1Nc1cc(F)ccc1[N+](=O)[O-]` was 87 to 88 °C; that for `c1cc(C2=NCCS2)nc(C2OCCO2)c1` was 50 to 52 °C; that for `CCc1cccc(C(O)CC)c1NC(=O)CC1c2ccccc2Oc2ccccc21` (stereo not drawn) was 167 to 168 °C.

`CCC(=O)Nc1ccc(Cl)c(COc2cccn3c(Br)c(C)nc23)c1Cl` registered a melting point of 205 to 207 °C.

Take `Cn1cc(C(=O)CCn2ccnc2)c2ccccc21`: the melting point was in the range of 121 to 123 °C. Take `CON(C(=O)c1cn(C)nc1C(F)F)C(C)Cc1c(Cl)sc(Cl)c1Cl` (stereo not drawn): the melting point is 70 to 72 °C. In the case of `NS(=O)(=O)c1cc2cc(P(=O)(O)O)c(=O)[nH]c2cc1C(F)(F)F`, the melting point lay in the range of 240 to 244 °C. On to `COc1cc(CCCC2SC(=O)NC2=O)ccc1OCc1nc(-c2ccco2)oc1C` (stereo not drawn), for which the melting point is 109 to 110 °C.

`CC(Oc1ccc(Oc2ccc(Cl)cc2Cl)cc1)C(=O)N1CCCO1` (stereo not drawn) yielded a melting point of 115 to 118 °C. The molecule `COc1cc(C(O)C(Cl)(Cl)Cl)cc(OC)c1O` (stereo not drawn) registered a melting point of 160 to 162 °C. Turning to `Nc1cc2c(Nc3ccc(Cl)c(Br)c3)ncnc2cn1`, the melting point is 271 to 274 °C. As to `CSC(Oc1cc2cc(Br)cnc2cc1C)C(=O)NC(C)(C)C` (stereo not drawn), the melting point lay within 132 to 134 °C. Then `C=CCS(=O)(=O)c1cccnc1S(=O)(=O)NC(=O)Nc1nc(OC)cc(OC)n1`, with 185 °C; and `CCCCCC(C)C(C)c1cc(OC)c2c(c1)OC(C)(C)C1=C2CN(C(=N)OC)CC1` (stereo not drawn), with 134 to 136 °C; and `Cc1ccc(N=c2ccn3ccccc3c2)cc1C`, with 185 to 187 °C. The value for `CC(=O)N[C@@H]1CCN(S(=O)(=O)c2ccc(Cl)c(COc3cccc4c(-n5ccnc5)cc(C)nc34)c2Cl)C1` was 246 °C. Molecule `CC(C)n1c2ccccc2c2sccc(=O)c21` came in with a melting point of 154 to 156 °C. The value for `O=[N+]([O-])c1ccc(O)c(Cn2c(=S)sc3ccccc32)c1` was 231 °C; that for `COc1ccc(C(=O)c2ccc(OC)cc2F)c(C)c1` was 88 to 90 °C. The value for `CCCCCCCCCCOS(=O)(=O)NC(=O)Nc1c(C(C)C)cccc1C(C)C` was 133 to 135 °C; that for `CC(C)(C)c1ccc(S(=O)(=O)Oc2ccc(C(C)(C)c3ccc(OS(=O)(=O)c4ccc(C(C)(C)C)cc4)cc3)cc2)cc1` was 124 to 127 °C; that for `COC1C(CO)OC(n2cnc3c(N)ncnc32)C1(C)O` (stereo not drawn) was 180 °C. Then `COC(=O)c1cccc(NC(N)=NC#N)c1`, with 203 to 204 °C; and `CCN(CCCc1ccccc1)[C@H]1CC[C@H](c2ccc(O)cc2)CC1`, with 163 to 166 °C; and `COC(=O)c1cc2ccc(Cl)c(Cl)c2o1`, with 162 °C. Take `CCCc1cc(Cl)nc(-c2cccc(Oc3ccccc3Cl)n2)n1`: the melting point turned out to be 96.5 °C. Turning to `CN1CCN(c2nc3cccc4c3n2CCC4)CC1`, the melting point lay in the range of 112 to 113 °C. Then `CC(C)c1cc(OS(C)(=O)=O)cc(C(C)C)c1NC(=O)CN1CCN(CCSc2nc3ccccc3o2)CC1`, with 115 to 117 °C; and `N#CCN1CCN(c2cccc(Cl)c2Cl)CC1`, with 89 to 92 °C. `O=C1NC(C(=O)NCCO[N+](=O)[O-])C(c2ccco2)S1` (stereo not drawn): the melting point was in the range of 117 to 118 °C. The molecule `Cc1ccc(-c2c(C(=O)NCc3cc(C(F)(F)F)cc(C(F)(F)F)c3)n(CCC(C)CO)c(=O)c3ncccc23)cc1` (racemic) registered a melting point of 129 to 130 °C. Molecule `Oc1ccc(N2CCSCC2)cc1` came in with a melting point of 156 to 158 °C. The value for `CCOc1ccc(-c2ccc3c(c2)C=C(C(=O)OC)CCN3)cc1` was 157 to 158 °C; that for `CN(C)CC1COc2ccc(NC(=O)c3ccc(-c4ccc(Cl)cc4)cc3)cc2O1` (stereo not drawn) was 158 to 159 °C; that for `N#CCN1CCC(c2n[nH]c3cc(F)ccc23)CC1` was 149 to 151 °C.

With `N=c1sc2cc(OC(F)(F)F)ccc2n1CCS(=O)c1ncccn1` (stereo not drawn), the melting point was determined as 120 °C.

Consider `CC(C)(Cc1c(C(C)(C)C)c2cc(OCc3ccc4ccccc4n3)ccc2n1Cc1ccc(Cl)cc1)C(=O)O`, for which the melting point lay in the range of 201 to 202 °C. Molecule `CCc1ccc2c(c1)OC1(O)c3cccc([N+](=O)[O-])c3C(=O)C21O` (stereo not drawn) yielded a melting point of 110 to 120 °C.

`CCOC(=O)Cc1ccc(CCNC(=O)c2cc(C)ccc2OC)cc1` yielded a melting point of 83 to 85 °C.

The molecule `CC(C)(C)C(=O)C(Br)Cc1cccnc1` (stereo not drawn) had a melting point of 163 to 164 °C. The value for `CC1=C(C)C(=O)N(c2ccc(Cl)c(Cl)c2)C1=O` was 188 °C. Then `COCCc1nc2c(N)nc3ccccc3c2n1CCOCCN(C)S(C)(=O)=O`, with 145 to 146 °C. The value for `O=C(O)Cc1ccc(CCNC(=O)c2ccc(Cl)cc2)cc1` was 182 to 183 °C; that for `COC(=O)C1=C(C)NC2=C(C1c1cccc([N+](=O)[O-])c1)S(=O)(=O)CCC2` (stereo not drawn) was 236 to 238 °C; that for `Cc1cccc(SSc2cccc(C)c2C(=O)Nc2ccc(S(N)(=O)=O)cc2)c1C(=O)Nc1ccc(S(N)(=O)=O)cc1` was 273 to 275 °C.

`COc1nc2ccc([N+](=O)[O-])cc2nc1Cl`: the melting point was in the range of 155 to 158 °C. Molecule `CCOC(=O)c1cn2c(n1)c(OCC)nc1cc(Br)c(Br)cc12` registered a melting point of 247 to 249 °C.

`Cc1ccc(S(=O)(=O)N2CC3CCCNC3C2)cc1` (stereo not drawn) returned a melting point of 95 to 97 °C. The value for `COc1cccc(C(=O)c2ccc(=O)n(Cc3ccc(Cl)cc3)c2)c1` was 104 °C; that for `CCCC[C@@H](C)C(C(=O)O)C(=O)O` was 123 °C; that for `COC(=O)c1cc(-c2ccc(OC)c(Cl)c2)nn(CC2CC2)c1=O` was 101 to 104 °C. `NC(=O)c1cscc1Br` came in with a melting point of 108 to 110 °C.
